Source: US20230087342A1, “AZEPANE DERIVATIVE” (Nippon Chemiphar Co., Ltd., priority 2019, published 2023)
pEC50: −log10 of the molar value.

What was measured:
[1] = Metabolic stability test; format: in vitro ADME; details: human liver microsomes, 0 to 30 minutes; a hydrochloride was used
Procedure: To determine the unchanged product-residual ratio of the test compound in the reaction sample, human liver microsomes and the test compound were reacted for a predetermined time (0 to 30 minutes). The unchanged product-residual ratio at a reaction time of 0 hours was considered 100%, the residual ratio after incubation was log-linear plotted with respect to the time, a regression line (y=100 e^−kt, k=slope of the line: elimination rate constant) was determined, and the metabolic clearance CLint (mL/min/kg) was calculated using the following formula.
CLint*=k (−min)×45 (mg MS protein/g liver)×21 (g liver/kg)/MS protein (mg MS protein/mL)
*: Yamazaki S.; Skaptason J.; Romero D, Vekich S.; Jones HM.; Tan W.; Wilner KD.; Koudriakova T. Drug Metab. Dispos. 2011 March; 39 (3): 383-393.

[2] = biological target: T1, human κ opioid receptors (Homo sapiens, UniProt P41145); test: Opioid receptor function test (Lance Ultra cAMP kit, agonist activity); format: cell-based; details: CHO cells expressing human κ opioid receptors, 10 μM forskolin, 30 minutes
T1 construct: host or cells: CHO cells
T1 sequence (P41145 whole entry): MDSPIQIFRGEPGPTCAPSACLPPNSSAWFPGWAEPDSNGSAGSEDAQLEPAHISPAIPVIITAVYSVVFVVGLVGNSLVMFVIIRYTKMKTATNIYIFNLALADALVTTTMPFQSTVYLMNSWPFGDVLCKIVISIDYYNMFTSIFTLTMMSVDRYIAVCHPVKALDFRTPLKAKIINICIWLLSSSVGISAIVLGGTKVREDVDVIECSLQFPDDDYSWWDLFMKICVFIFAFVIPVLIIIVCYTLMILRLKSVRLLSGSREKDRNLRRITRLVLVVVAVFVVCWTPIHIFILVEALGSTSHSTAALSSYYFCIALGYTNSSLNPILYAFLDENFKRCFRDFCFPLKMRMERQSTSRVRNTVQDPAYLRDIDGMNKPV
Procedure, shortened: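 CHO cells expressing human κ opioid receptor incubated 30 min with test compound (10^−14 to 10^−7 M) and 10 μM forskolin in HSS/5 mM HEPES pH 7.4 with 0.5 mM IBMX and 0.1% SA. cAMP measured by TR-FRET (Lance Ultra) 1 h after detection reagent addition.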

O=C(Cc1ncccn1)N1CC[C@]23CCN(CC4CC4)[C@H](Cc4ccc(O)cc42)[C@]3(O)CC1 [Example 20, 1-((5aS,6R,11bR)-14-(cyclopropylmethyl)-5a,10-dihydroxy-1,2,5,5a,6,7-hexahydro-6,11b-(epiminoethano)naphtho[1,2-d]azepin-3(4H)-yl)-2-(pyrimidin-2-yl)ethan-1-one] showed a CLint scaled [1] of 3.9 mL/min/kg.
For Oc1ccc2c(c1)[C@@]13CCN(CCc4nccs4)CC[C@@]1(O)[C@@H](C2)N(CC1CC1)CC3 [Example 31, (5aS,6R,11bS)-14-(cyclopropylmethyl)-3-(2-(thiazol-2-yl)ethyl)-2,3,4,5,6,7-hexahydro-6,11b-(epiminoethano)naphtho[1,2-d]azepine-5a,10(1H)-diol], the pEC50 [2] was 9.96 and the CLint scaled [1] was 7.5 mL/min/kg.
In the case of Oc1ccc2c(c1)[C@@]13CCN(CCn4cc(Br)cn4)CC[C@@]1(O)[C@@H](C2)N(CC1CC1)CC3 [Example 61, (5aS,6R,11bS)-3-(2-(4-bromo-1H-pyrazol-1-yl)ethyl)-14-(cyclopropylmethyl)-2,3,4,5,6,7-hexahydro-6,11b-(epiminoethano)naphtho[1,2-d]azepine-5a,10(1H)-diol], the pEC50 [2] was 10.55 and the CLint scaled [1] was 26 mL/min/kg.
Compound Oc1ccc2c(c1)[C@@]13CCN(CCc4ccccc4)CC[C@@]1(O)[C@@H](C2)N(CC1CC1)CC3 [Example 90, (5aS,6R,11bS)-14-(cyclopropylmethyl)-3-phenethyl-2,3,4,5,6,7-hexahydro-6,11b-(epiminoethano)naphtho[1,2-d]azepine-5a,10(1H)-diol] has a pEC50 [2] of 9.06 and a CLint scaled [1] of 11.6 mL/min/kg.
Oc1ccc2c(c1)[C@@]13CCN(CCc4ccc5ccccc5n4)CC[C@@]1(O)[C@@H](C2)N(CC1CC1)CC3 [Example 124, (5aS,6R,11bS)-14-(cyclopropylmethyl)-3-(2-(quinolin-2-yl)ethyl)-2,3,4,5,6,7-hexahydro-6,11b-(epiminoethano)naphtho[1,2-d]azepine-5a,10(1H)-diol] gave a pEC50 [2] of 10.40 and a CLint scaled [1] of 14.3 mL/min/kg.
In the case of O=C(Cc1ncccn1)N1CCC[C@@]2(O)[C@H]3Cc4ccc(O)cc4[C@@]2(CCN3CC2CC2)C1 [Example 139, 1-((5aS,6R,11bS)-14-(cyclopropylmethyl)-5a,10-dihydroxy-3,4,5,5a,6,7-hexahydro-6,11b-(epiminoethano)naphtho[1,2-c]azepin-2(1H)-yl)-2-(pyrimidin-2-yl)ethan-1-one], the CLint scaled [1] was 29.7 mL/min/kg.
Cc1cnn(CCN2CC[C@]34CCN[C@H](Cc5ccc(O)cc53)[C@]4(O)CC2)c1 [Example 176, (5aS,6R,11bR)-3-(2-(4-methyl-1H-pyrazol-1-yl)ethyl)-2,3,4,5,6,7-hexahydro-6,11b-(epiminoethano)naphtho[1,2-d]azepine-5a,10(1H)-diol] gave a CLint scaled [1] of 8.2 mL/min/kg.
In the case of Cc1cc(CCN2CC[C@]34CCN(CC5CC5)[C@H](Cc5ccc(O)cc53)[C@]4(O)CC2)ns1 [Example 177, (5aS,6R,11bS)-14-(cyclopropylmethyl)-3-(2-(5-methylisothiazol-3-yl)ethyl)-2,3,4,5,6,7-hexahydro-6,11b-(epiminoethano)naphtho[1,2-d]azepine-5a,10(1H)-diol], the pEC50 [2] was 10.72 and the CLint scaled [1] was 9.5 mL/min/kg.
For Cc1cnn(C[C@@H](C)N2CC[C@]34CCN(CC5CC5)[C@H](Cc5ccc(O)cc53)[C@]4(O)CC2)c1 [Example 229, (5aS,6R,11bS)-14-(cyclopropylmethyl)-3-((R)-1-(4-methyl-1H-pyrazol-1-yl)propan-2-yl)-2,3,4,5,6,7-hexahydro-6,11b-(epiminoethano)naphtho[1,2-d]azepine-5a,10(1H)-diol], the pEC50 [2] was 10.60 and the CLint scaled [1] was 5.1 mL/min/kg.
Compound Cc1cnn(CCN2CC[C@]34CCN(CC5CC5)[C@H](Cc5ccc(C(N)=O)cc53)[C@]4(O)CC2)c1 [Example 244, (5aS,6R,11bS)-14-(cyclopropylmethyl)-5a-hydroxy-3-(2-(4-methyl-1H-pyrazol-1-yl)ethyl)-1,2,3,4,5,5a,6,7-octahydro-6,11b-(epiminoethano)naphtho[1,2-d]azepine-10-carboxamide] has a pEC50 [2] of 9.33 and a CLint scaled [1] of 7.7 mL/min/kg.
For NC(=O)c1ccc2c(c1)[C@@]13CCN(C(=O)Cc4ccccn4)CC[C@@]1(O)[C@@H](C2)N(CC1CC1)CC3 [Example 247, (5aS,6R,11bR)-14-(cyclopropylmethyl)-5a-hydroxy-3-(2-(pyridin-2-yl)acetyl)-1,2,3,4,5,5a,6,7-octahydro-6,11b-(epiminoethano)naphtho[1,2-d]azepine-10-carboxamide], the CLint scaled [1] was 4.8 mL/min/kg.
With Cc1cnn(CCN2CC[C@]34CCN(CC5CC5)[C@H](Cc5cccc(O)c53)[C@]4(O)CC2)c1 [Example 277, (5aS,6R,11bS)-14-(cyclopropylmethyl)-3-(2-(4-methyl-1H-pyrazol-1-yl)ethyl)-2,3,4,5,6,7-hexahydro-6,11b-(epiminoethano)naphtho[1,2-d]azepine-5a,11(1H)-diol] the CLint scaled [1] was 6.4 mL/min/kg.
Work on Cc1cnn(CCN2CC[C@]34CCN(CC5CC5)[C@H](Cc5cc(C(N)=O)c(O)cc53)[C@]4(O)CC2)c1 [Example 295, (5aS,6R,11bS)-14-(cyclopropylmethyl)-5a,10-dihydroxy-3-(2-(4-methyl-1H-pyrazol-1-yl)ethyl)-1,2,3,4,5,5a,6,7-octahydro-6,11b-(epiminoethano)naphtho[1,2-d]azepine-9-carboxamide] yielded a CLint scaled [1] of 17.2 mL/min/kg.
Cc1cnn(CCN2CC[C@]34CCN(CC5CC5)[C@H](Cc5cc(I)c(O)cc53)[C@]4(O)CC2)c1 [Example 298, (5aS,6R,11bS)-14-(cyclopropylmethyl)-9-iodo-3-(2-(4-methyl-1H-pyrazol-1-yl)ethyl)-2,3,4,5,6,7-hexahydro-6,11b-(epiminoethano)naphtho[1,2-d]azepine-5a,10(1H)-diol] showed a CLint scaled [1] of 22.5 mL/min/kg.
O=C(Cc1ccccn1)N1CC[C@]23CCN(CC4CC4)[C@H](Cc4cc(C(F)(F)F)c(O)cc42)[C@]3(O)CC1 [Example 320, 1-((5aS,6R,11bR)-14-(cyclopropylmethyl)-5a,10-dihydroxy-9-(trifluoromethyl)-1,2,5,5a,6,7-hexahydro-6,11b-(epiminoethano)naphtho[1,2-d]azepin-3(4H)-yl)-2-(pyridin-2-yl)ethan-1-one] showed a CLint scaled [1] of 22.9 mL/min/kg.
Cc1cc2c(cc1O)[C@@]13CCN(C(=O)Cc4cccc(C(F)(F)F)n4)CC[C@@]1(O)[C@@H](C2)N(CC1CC1)CC3 [Example 322, 1-((5aS,6R,11bR)-14-(cyclopropylmethyl)-5a,10-dihydroxy-9-methyl-1,2,5,5a,6,7-hexahydro-6,11b-(epiminoethano)naphtho[1,2-d]azepin-3(4H)-yl)-2-(6-(trifluoromethyl)pyridin-2-yl)ethan-1-one] showed a CLint scaled [1] of 6.6 mL/min/kg.
With CC1(C)C[C@@]2(O)[C@H]3Cc4ccc(O)cc4[C@@]2(CCN3CC2CC2)CCN1C(=O)Cc1ccccn1 [Example 343, 1-((5aS,6R,11bR)-14-(cyclopropylmethyl)-5a,10-dihydroxy-4,4-dimethyl-1,2,5,5a,6,7-hexahydro-6,11b-(epiminoethano)naphtho[1,2-d]azepin-3(4H)-yl)-2-(pyridin-2-yl)ethan-1-one] the pEC50 [2] was 9.25.
In the case of CCC1C[C@@]2(O)[C@H]3Cc4ccc(O)cc4[C@]2(CCN1C(=O)Cc1ccccn1)CCN3CC1CC1 (stereo partly drawn) [Example 347, 1-((5aS,6R,11bR)-14-(cyclopropylmethyl)-4-ethyl-5a,10-dihydroxy-1,2,5,5a,6,7-hexahydro-6,11b-(epiminoethano)naphtho[1,2-d]azepin-3(4H)-yl)-2-(pyridin-2-yl)ethan-1-one], the pEC50 [2] was 9.92.
NC(=O)c1ccc2c(c1O)[C@@]13CCN(C(=O)Cc4ccccn4)CC[C@@]1(O)[C@@H](C2)N(CC1CC1)CC3 [Example 353, (5aS,6R,11bR)-14-(cyclopropylmethyl)-5a,11-dihydroxy-3-(2-(pyridin-2-yl)acetyl)-1,2,3,4,5,5a,6,7-octahydro-6,11b-(epiminoethano)naphtho[1,2-d]azepine-10-carboxamide] showed a CLint scaled [1] of 7.9 mL/min/kg.
Compound Cc1cc2c(cc1O)[C@@]13CCN(C(=O)Cc4cc(C(F)(F)F)ccn4)CC[C@@]1(O)[C@@H](C2)N(CC1CC1)CC3 [Example 355, 1-((5aS,6R,11bR)-14-(cyclopropylmethyl)-5a,10-dihydroxy-9-methyl-1,2,5,5a,6,7-hexahydro-6,11b-(epiminoethano)naphtho[1,2-d]azepin-3(4H)-yl)-2-(4-(trifluoromethyl)pyridin-2-yl)ethan-1-one] has a pEC50 [2] of 9.96.
With Cc1cc2c(cc1O)[C@@]13CCN(C(=O)Cc4n[nH]c5ccccc45)CC[C@@]1(O)[C@@H](C2)N(CC1CC1)CC3 [Example 357, 1-((5aS,6R,11bR)-14-(cyclopropylmethyl)-5a,10-dihydroxy-9-methyl-1,2,5,5a,6,7-hexahydro-6,11b-(epiminoethano)naphtho[1,2-d]azepin-3(4H)-yl)-2-(1H-indazol-3-yl)ethan-1-one] the pEC50 [2] was 10.21.
In the case of “(5aS,6R,11bS)-14-(cyclopropylmethyl)-3-((1R,3R)-3-(4-methyl-1H-pyrazol-1-yl)cyclopentyl)-2,3,4,5,6,7-hexahydro-6,11b-(epiminoethano)naphtho[1,2-d]azepine-5a,10(1H)-diol and (5aS,6R,11bS)-14-(cyclopropylmethyl)-3-((1S,3S)-3-(4-methyl-1H-pyrazol-1-yl)cyclopentyl)-2,3,4,5,6,7-hexahydro-6,11b-(epiminoethano)naphtho[1,2-d]azepine-5a,10(1H)-diol [Example 237]”, the pEC50 [2] was 9.54.
